The values that follow come from patent US11446298B2, “Pyrimidine derivatives” (Idorsia Pharmaceuticals Ltd, priority 2017, dated 2022).

In one test the target is T1, EP2 (Homo sapiens, UniProt P43116).
T1 construct: SF295 glioblastoma cells express high endogenous EP2 and no EP4; host or cells: SF295 glioblastoma cells
The experiment in a line: hEP2 cAMP Assay (SF295 glioblastoma cells, HTRF cAMP, PGE2 75 nM). It is filed as cell-based. The following applies: antagonistic activity, PGE2 75 nM (EC80). The method, then: (§1) The antagonistic activities of the compounds of formula (I) on the EP2 and EP4 receptors are also determined in accordance with the following experimental method.
(§2) Human tumor cell lines expressing endogenously either EP4 or EP2 are used and cAMP accumulation in cells upon PGE2 stimulation is monitored. SF295 glioblastoma cells express high endogenous EP2 and no EP4, whereas BT549 breast cancer cells, express high endogenous EP4 levels and very low EP2 levels.
(§3) As a detection method for cAMP the HTRF (homogeneous time resolved fluorescence) Cisbio kit (HTRF cAMP dynamic 2 kit 20′000 tests Cisbio Cat. #62AM4PEC) was used, which is based on a competitive immunoassay using a Cryptate-labeled anti-cAMP antibody and d2-labeled cAMP. Native cAMP produced by cells or unlabeled cAMP (for the standard curve) compete with exogenously added d2-labeled cAMP (acceptor) for binding to monoclonal anti-cAMP-Eu3+Cryptate (donor). A FRET signal (Fluorescence Resonance Energy Transfer) is obtained only if the labeled anti-cAMP antibody binds the d2 labelled cAMP, thus the specific signal (i.e. energy transfer) is inversely proportional to the concentration of cAMP in the standard or sample.
The SF295 cells (NCI/No. 0503170) are detached from culture dishes with a cell dissociation buffer (Invitrogen, 13151-014), and collected in growing medium (GM: RPM11640 (Invitrogen 21875)/10% FCS, 1% Penicilin/streptomycin). Cells are counted washed and resuspended in assay buffer (AB; HBSS, 20 mM HEPES, 0.2% BSA; 2 mM IBMX). 4′000 cells in 5 μL of AB are seeded per well of a small volume 384 well plate (black with flat bottom, Greiner 784076).
(§4) Stock solutions of test compounds are made at a concentration of 10 mM in DMSO, and serially diluted in DMSO to concentrations required for inhibition dose response curves (tested concentration range 30 μM-0.4 nM; 30 μM-0.015 nM or 1 μM-0.01 nM).
PGE2 (Cayman 14010, stock solution: 75 μM in DMSO) is used as agonist at 75 nM final concentration, corresponding to EC80.
2.5 μL of diluted compounds are transferred into the assay plate. Plate is pre-incubated 45 minutes at room temperature. Subsequently, 2.5 μL of PGE2 (final conc. 75 nM) are transferred into the assay plate. Plate is incubated 30 minutes at room temperature. Five μL of each donor (anti-cAMP cryptate) and acceptor (cAMP-d2) are added and the plate is incubated another hour at room temperature in the dark and then read using a BMG LABTECH PHERAstar reader (Excitation: 337 nm, Emission: 620 and 665 nm).
(§5) The obtained Delta F (fluorescence) values (665 nm/620 nM) are converted into % cAMP values using the measurements of the cAMP calibrator provided in the kit. For each compound concentration the percentage of cAMP compared to DMSO control value as average ±STDEV (each concentration is measured in duplicate) is calculated.
(§6) IC50 values and curves are generated with XLfit software (IDBS) using Dose-Response One Site model 203. When compounds were measured multiple times, mean values are given.

A further test concerns the target T2, EP4 (Homo sapiens, UniProt P35408).
T2 construct: BT549 breast cancer cells, express high endogenous EP4 levels and very low EP2 levels; host or cells: BT549 breast cancer cells
The experiment in a line: hEP4 cAMP Assay (BT549 breast cancer cells, HTRF cAMP, PGE2 6 nM). The following applies: antagonistic activity, PGE2 6 nM (EC80). It is filed as cell-based. The method, then:
as §1, §2, §3
The BT549 cells (NCI/No. 0507282) are detached from culture dishes with a cell dissociation buffer (Invitrogen, 13151-014), and collected in growing medium (GM: RPMI1640 (Invitrogen 21875)/10% FCS, 1% Penicilin/streptomycin). Cells are counted washed and resuspended in assay buffer (AB; HBSS, 20 mM HEPES, 0.2% BSA; 2 mM IBMX). 4′000 cells in 5 μL of AB are seeded per well of a small volume 384 well plate (black with flat bottom, Greiner 784076).
as §4
PGE2 (Cayman 14010, stock solution: 6 uM in DMSO) is used as agonist at 6 nM final concentration, corresponding to EC80.
2.5 μL of diluted compounds are transferred into the assay plate. Plate is pre-incubated 45 minutes at room temperature. Subsequently, 2.5 μL of PGE2 (final conc. 6 nM) are transferred into the assay plate. Plate is incubated 30 minutes at room temperature. 5 μL of each donor (anti-cAMP cryptate) and acceptor (cAMP-d2) are added and the plate is incubated another hour at room temperature in the dark and then read using a BMG LABTECH PHERAstar reader (Excitation: 337 nm, Emission: 620 and 665 nm).
as §5, §6
For orientation: Time-resolved FRET reads energy transfer from a long-lived donor to a nearby acceptor.

pIC50: −log10 of the molar value.

T1 sequence (P43116 whole entry): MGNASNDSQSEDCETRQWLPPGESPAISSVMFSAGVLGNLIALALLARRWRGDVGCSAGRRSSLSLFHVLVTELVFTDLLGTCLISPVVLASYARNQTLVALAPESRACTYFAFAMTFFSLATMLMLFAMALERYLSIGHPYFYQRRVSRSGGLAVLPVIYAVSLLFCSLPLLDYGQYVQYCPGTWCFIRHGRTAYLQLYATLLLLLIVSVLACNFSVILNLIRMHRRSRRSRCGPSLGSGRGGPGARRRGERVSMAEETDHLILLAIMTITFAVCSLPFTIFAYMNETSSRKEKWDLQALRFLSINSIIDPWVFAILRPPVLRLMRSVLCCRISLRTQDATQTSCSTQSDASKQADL
T2 sequence (P35408 whole entry): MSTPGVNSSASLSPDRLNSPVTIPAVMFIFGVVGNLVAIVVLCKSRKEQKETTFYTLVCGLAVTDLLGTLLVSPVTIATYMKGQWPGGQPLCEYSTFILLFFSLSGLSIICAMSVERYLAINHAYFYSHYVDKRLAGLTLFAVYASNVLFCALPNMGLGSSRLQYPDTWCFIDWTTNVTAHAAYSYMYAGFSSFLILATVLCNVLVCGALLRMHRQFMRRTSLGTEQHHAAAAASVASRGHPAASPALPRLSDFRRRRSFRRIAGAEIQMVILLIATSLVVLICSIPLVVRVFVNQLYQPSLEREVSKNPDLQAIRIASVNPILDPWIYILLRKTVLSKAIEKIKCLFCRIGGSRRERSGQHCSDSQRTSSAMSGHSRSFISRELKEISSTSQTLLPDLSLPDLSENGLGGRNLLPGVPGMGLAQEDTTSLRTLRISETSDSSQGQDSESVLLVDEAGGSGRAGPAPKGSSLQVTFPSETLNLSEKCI

One may read the pIC50 as the IC50 on a negative log10 scale, so that one unit is a factor of ten. A high value points to a low IC50. As for `CCOc1cc(-c2cc(NCCc3c(OC)ccc4c(OC)cccc34)ncn2)ccc1OCC(=O)O` [Example 55, (4-{6-[2-(2,5-Dimethoxy-naphthalen-1-yl)-ethylamino]-pyrimidin-4-yl}-2-ethoxy-phenoxy)-acetic acid], the pIC50 is 6.08 against EP2 and 6.52 against EP4.

“5-{6-[2-(6-Fluoro-2-methoxy-quinolin-8-yl)-ethylamino]-pyrimidin-4-yl}-3-trifluoromethyl-thiophene-2-carboxylic acid [Example 153]”: the pIC50 at EP2 was 6.36; on EP4, 6.55.

As for `COc1ccc2c(c1CCNc1cc(-c3ccc(C(=O)O)c(OC4CCC4)c3)ncn1)OCO2` [Example 43, 2-Cyclobutoxy-4-{6-[2-(5-methoxy-benzo[1,3]dioxol-4-yl)-ethylamino]-pyrimidin-4-yl}-benzoic acid], the pIC50 was 6.60 on EP2 and 6.10 on EP4.

On to `COc1ccc2cccc(CCNc3cc(-c4cc(C(F)(F)F)c(C(=O)O)s4)ncn3)c2n1` [Example 150, 5-{6-[2-(2-Methoxy-quinolin-8-yl)-ethylamino]-pyrimidin-4-yl}-3-trifluoromethyl-thiophene-2-carboxylic Acid], for which the pIC50 is 6.28 against EP2 and 6.49 on EP4.

Consider `CCOc1cc(-c2cc(NCCc3ccc(OC)c4ccccc34)ncn2)ccc1OCC(=O)O` [Example 60, (2-Ethoxy-4-{6-[2-(4-methoxy-naphthalen-1-yl)-ethylamino]-pyrimidin-4-yl}-phenoxy)-acetic acid], for which the pIC50 is 6.07 at EP2 and 6.42 at EP4.

On to `CCOc1cc(-c2cc(NCCc3c(C)c(C)cc4ccccc34)ncn2)ccc1C(=O)O` [Example 11, 4-{6-[2-(2,3-Dimethyl-naphthalen-1-yl)-ethylamino]-pyrimidin-4-yl}-2-ethoxy-benzoic acid], for which the pIC50 is 6.58 on EP2 and 6.05 at EP4.

With `O=C(O)c1sc(-c2cc(NCCc3cccc4cccnc34)ncn2)cc1C(F)(F)F` [Example 82, 5-[6-(2-Quinolin-8-yl-ethylamino)-pyrimidin-4-yl]-3-trifluoromethyl-thiophene-2-carboxylic acid], the pIC50 against EP2 was 6.01; on EP4, 6.02.

`CCOc1cc(-c2cc(NCCc3cccc4ccoc34)ncn2)ccc1OCC(=O)O` [Example 51]: the pIC50 against EP2 was 6.33; on EP4 it was 6.07.

`CCOc1cc(-c2cc(NCCc3c(Br)ccc4ccccc34)ncn2)sc1C(=O)O` [Example 10, 5-{6-[2-(2-Bromo-naphthalen-1-yl)-ethylamino]-pyrimidin-4-yl}-3-ethoxy-thiophene-2-carboxylic acid]: the pIC50 against EP2 was 8.30; against EP4, 7.66.

For `CCOc1cc(-c2cc(NCCc3cccc4cc(C)oc34)ncn2)ccc1OCC(=O)O` [Example 75, (2-Ethoxy-4-{6-[2-(2-methyl-benzofuran-7-yl)-ethylamino]-pyrimidin-4-yl}-phenoxy)-acetic acid], the values for the pIC50 against EP2 and against EP4 were 6.01 and 6.05, respectively.

Turning to `CCOc1cc(-c2cc(NCCc3c(C)ccc4c3cnn4C)ncn2)ccc1OCC(=O)O` [Example 80, (4-{6-[2-(1,5-Dimethyl-1H-indazol-4-yl)-ethylamino]-pyrimidin-4-yl}-2-ethoxy-phenoxy)-acetic acid], the pIC50 against EP2 was 6.47; against EP4, 6.31.

Take `COc1ccc2ccccc2c1CCNc1cc(-c2cc(OCCO)c(C(=O)O)s2)ncn1` [Example 156, 3-(2-Hydroxy-ethoxy)-5-{6-[2-(2-methoxy-naphthalen-1-yl)-ethylamino]-pyrimidin-4-yl}-thiophene-2-carboxylic acid]: the pIC50 against EP2 is 8.15; on EP4 it was 7.29.

With `CCNC(=O)Nc1ccc(-c2cc(NCCc3c(OC)ccc4ncccc34)ncn2)cc1OC` [Example 98, 1-Ethyl-3-(2-methoxy-4-{6-[2-(6-methoxy-quinolin-5-yl)-ethylamino]-pyrimidin-4-yl}-phenyl)-urea], the pIC50 was 6.45 against EP2 and 6.47 against EP4.

For the molecule `CCOc1cc(-c2cc(NCCc3cccc4ccn(C)c34)ncn2)ccc1OCC(=O)O` [Example 50, (2-Ethoxy-4-{6-[2-(1-methyl-1H-indol-7-yl)-ethylamino]-pyrimidin-4-yl}-phenoxy)-acetic acid], the pIC50 against EP2 was 6.40; on EP4, 6.20.

For `COc1ccc2c(OC)cccc2c1CCNc1cc(-c2ccc(C(=O)O)c(OC3CCC3)c2)ncn1` [Example 52, 2-Cyclobutoxy-4-{6-[2-(2,5-dimethoxy-naphthalen-1-yl)-ethylamino]-pyrimidin-4-yl}-benzoic acid], the pIC50 is 6.11 against EP2 and 6.12 against EP4.

As for `CCOc1cc(-c2cc(NCCc3cccc4ccsc34)ncn2)ccc1OCC(=O)O` [Example 104], the pIC50 was 6.47 against EP2 and 6.45 against EP4.

With `CCOc1cc(-c2cc(NCCc3cccc4c3OCO4)ncn2)sc1C(=O)O` [Example 36, 5-[6-(2-Benzo[1,3]dioxol-4-yl-ethylamino)-pyrimidin-4-yl]-3-ethoxy-thiophene-2-carboxylic acid], the pIC50 against EP2 is 6.58; on EP4, 6.43.

Take `CCCOc1ccc2ccccc2c1CCNc1cc(-c2cc(OCC)c(C(=O)O)s2)ncn1` [Example 38, 3-Ethoxy-5-{6-[2-(2-propoxy-naphthalen-1-yl)-ethylamino]-pyrimidin-4-yl}-thiophene-2-carboxylic acid]: the pIC50 against EP2 is 7.66; against EP4, 7.32.

As to `CCOc1cc(-c2cc(NCCc3cccc4cc(C)n(C)c34)ncn2)ccc1OCC(=O)O` [Example 57, (4-{6-[2-(1,2-Dimethyl-1H-indol-7-yl)-ethylamino]-pyrimidin-4-yl}-2-ethoxy-phenoxy)-acetic acid], the pIC50 against EP2 is 6.29; against EP4, 6.02.

Regarding `CCOc1cc(-c2cc(NCCc3c(OC)ccc4c(OC)cccc34)ncn2)ccc1C(=O)O` [Example 54, 4-{6-[2-(2,5-Dimethoxy-naphthalen-1-yl)-ethylamino]-pyrimidin-4-yl}-2-ethoxy-benzoic acid], the pIC50 against EP2 was 6.06; at EP4 it was 6.38.

Consider `CCOc1cc(-c2cc(NCCc3cccc4ccsc34)ncn2)ccc1CC(=O)O` [Example 105, {4-[6-(2-Benzo[b]thiophen-7-yl-ethylamino)-pyrimidin-4-yl]-2-ethoxy-phenyl}-acetic acid], for which the figures for the pIC50 at EP2 and at EP4 were 6.11 and 6.16, respectively.

`CCOc1cc(-c2cc(NCCc3cccc4sccc34)ncn2)ccc1OCC(=O)O` [Example 109]: the pIC50 is 6.14 against EP2 and 6.34 against EP4.

On to `COc1cc(CCNc2cc(-c3ccc(C(=O)O)c(OC4CCC4)c3)ncn2)c2ccccc2c1` [Example 41, 2-Cyclobutoxy-4-{6-[2-(3-methoxy-naphthalen-1-yl)-ethylamino]-pyrimidin-4-yl}-benzoic acid], for which the figures for the pIC50 on EP2 and against EP4 were 6.53 and 6.15, respectively.
